Measurements published in US10377741B2, “Substituted heteroaryl aldehyde compounds and methods for their use in increasing tissue oxygenation” (Global Blood Therapeutics, Inc., priority 2011, dated 2019).

Legend:
whole blood = experiment: Whole blood assay: oxygen equilibrium curves of whole blood; format: cell-based, human (homozygous sickle cell patients); conditions: compound at 1000 μM; hematocrit 20%, 1 hour at 37° C.
Experimental: Oxygen Equilibrium Curves (OEC) of whole blood before and after treatment with different concentrations of substituted benzaldehyde compounds were performed as follows using a HEMOX analyzer (TCS Scientific, New Hope, Pa.). Blood samples from homozygous sickle cell patients were obtained though the Hemoglobinopathy Center at Children's Hospital Oakland Research Institute (CHORI) with Institutional Review Board approval. The hematocrit was adjusted to 20% using autologous plasma and the blood samples were incubated for 1 hour at 37° C. in absence or presence of compounds. 100 μl of these samples were added to 5 mL of Hemox buffer (30 mM TES, 130 mM NaCl, 5 mM KCl, pH=7.4) at 37° C. and then transferred to the Hemox sample chamber. The samples were saturated with oxygen by flushing with compressed air for 10 minutes. The samples were then flushed with pure nitrogen and the respective absorbances of oxy- and deoxy-Hb are recorded as a function of the solution pO2. The oxygen equilibrium data were then fitted to the Hill Model to obtain values for p50. The deoxygenation curves for both whole blood alone (control) and whole blood in the presence of the compound were collected with the TCS software.
Table 5 below lists the delta p50% values where + indicates a delta p50% of between 0 and 29, ++ indicates a delta p50% of between 30 and 50, and +++ indicates a delta p50% of 50 or greater. Unless noted otherwise, the compounds in Table 2 were tested at 1000 μM.

[1] = target: T1, purified Hemoglobin S (HbS) (Homo sapiens, UniProt P68871+P69905, E7V); experiment: Modulation of hemoglobin oxygen affinity: oxygen equilibrium curves (HEMOX) in purified HbS; format: biochemical, human (homozygous sickle cell patients); conditions: compound at 30 μM; 25 μM purified HbS, 45 min at 37° C.
T1 construct: HbS was purified by a modified procedure; from tissue; host or cells: blood of homozygous sickle cell patients (CHORI); for the polymerization assay purified by the CRO VIRUSYS
How it was run: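 HbS from homozygous sickle cell patient blood, 25 μM in HEMOX buffer pH 7.4, incubated 45 min at 37° C with compound (30 μM unless noted). Air-saturated then deoxygenated with N2; p50 from Hill fit; delta p50% = (control p50 − treated p50)/control p50 × 100.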

HbS/A = target: T2, HbS/A (Homo sapiens, UniProt P68871+P69905, E7V); experiment: R/T assay (relaxed-to-tense transition under deoxygenated conditions); format: biochemical, human (homozygous sickle cell patients); conditions: 3 μM HbS/A, % R remaining vs no treatment
T2 construct: A mixture of HbS/A was purified from blood; from tissue; host or cells: blood of homozygous sickle cell patients (CHORI)
Experimental: A relaxed-to-tense transition assay (“R/T assay”) was used to determine the ability of substituted benzaldehyde compounds to maintain the high-oxygen affinity relaxed (R) state of hemoglobin under deoxygenated conditions. This ability can be expressed as a “delta R” value (i.e., the change in the time-period of the R state after hemoglobin is treated with a compound, as compared to the period without treatment with the compound). Delta R is the % R to remaining after the compounds treatment compared with no treatment (e.g. if R % without treatment is 8% while with treatment with a target compound is 48% R at 30 μM, then % R is 40% for that compound.
A mixture of HbS/A was purified from blood obtained from homozygous sickle cell patients though the Hemoglobinopathy Center at Children's Hospital Oakland Research Institute (CHORI) with Institutional Review Board approval. HbS/A (at a final concentration of 3 μM) was incubated for 1 hr at 37° C. in presence or absence of compounds in […] potassium phosphate buffer, pH=7.4 and 30 μM 2, 3 diphosphoglycerate (DPG) in 96 well plates in a final volume of 160 μl. Compounds were added at different concentrations (3 μM to 100 μM final concentrations). Plates were covered with a Mylar film. After incubation was completed the Mylar cover was removed and the plates were placed in a Spectrostar Nano plate reader previously heated at 37° C. Five minutes later, N2 (flow rate=20 L/min) was flowed through the spectrophotometer. Spectroscopic measurements (300 nm to 700 nm) were taken every 5 min for 2 hours. Data analysis was performed by using linear regression from the data retrieved for all wavelengths.
Table 4 below lists the delta R values where + indicates a delta R of between 0 and 30, ++ indicates a delta R of between 30 and 50, and +++ indicates a delta R of 50 or greater. Unless noted otherwise, the compounds in Table 2 were tested at 30 μM.

| SMILES | delta p50% Values for Whole Blood Assay (whole blood) | delta p50% [1] | delta R (HbS/A; compound at 9 μM) | delta R (HbS/A; compound at 30 μM) |
| --- | --- | --- | --- | --- |
| COc1cc(C=O)c(OCc2nccc3ccccc23)cn1 [Compound 44, 5-(isoquinolin-1-ylmethoxy)-2-methoxyisonicotinaldehyde] | + (a delta p50% of between 0 and 29) | +++ (a delta p50% of 50 or greater) |  |  |
| COc1cc(C=O)c(OCc2cccn3c(C)nnc23)cn1 [Compound 58, 2-methoxy-5-((3-methyl-[1,2,4]triazolo[4,3-a]pyridin-8-yl)methoxy)isonicotinaldehyde] | + (a delta p50% of between 0 and 29) | ++ (a delta p50% of between 30 and 50) | + (a delta R of between 0 and 30) |  |
| COc1cc(C=O)c(OCc2cccnc2-c2ccn[nH]2)cn1 [Compound 65, 5-((2-(1H-pyrazol-5-yl)pyridin-3-yl)methoxy)-2-methoxyisonicotinaldehyde] | + (a delta p50% of between 0 and 29) | ++ (a delta p50% of between 30 and 50) | + (a delta R of between 0 and 30) |  |
| COc1cc(C=O)c(OCc2cncc(-c3ccnn3C)c2)cn1 [Compound 74, 2-methoxy-5-((5-(1-methyl-1H-pyrazol-5-yl)pyridin-3-yl)methoxy)isonicotinaldehyde] | ++ (a delta p50% of between 30 and 50) | ++ (a delta p50% of between 30 and 50) |  |  |
| COc1cc(C=O)c(OCc2cncc(C(=O)O)c2)cn1 [Compound 79, 5-((4-formyl-6-methoxypyridin-3-yloxy)methyl)nicotinic acid] | + (a delta p50% of between 0 and 29) | ++ (a delta p50% of between 30 and 50) | ++ (a delta R of between 30 and 50) |  |
| COc1cc(C=O)c(OCc2cnc3ccccc3c2)cn1 [Compound 80, 2-methoxy-5-(quinolin-3-ylmethoxy)isonicotinaldehyde] | + (a delta p50% of between 0 and 29) | ++ (a delta p50% of between 30 and 50) | +++ (a delta R of 50 or greater) |  |
| Cc1ccc(OCc2cccc3cnn(C)c23)c(C=O)n1 [Compound 92, 6-methyl-3-((1-methyl-1H-indazol-7-yl)methoxy)picolinaldehyde] | + (a delta p50% of between 0 and 29) | ++ (a delta p50% of between 30 and 50) | + (a delta R of between 0 and 30) |  |
| Cc1ccc(OCc2nccc3ccccc23)c(C=O)n1 [Compound 93, 3-(isoquinolin-1-ylmethoxy)-6-methylpicolinaldehyde] | + (a delta p50% of between 0 and 29) | ++ (a delta p50% of between 30 and 50) | + (a delta R of between 0 and 30) |  |
| COc1cc(C=O)c(OCc2cccc3ocnc23)cn1 [Compound 103, 5-(benzo[d]oxazol-4-ylmethoxy)-2-methoxyisonicotinaldehyde] | + (a delta p50% of between 0 and 29) | ++ (a delta p50% of between 30 and 50) | ++ (a delta R of between 30 and 50) |  |
| Cc1ccc(OCc2ccnc3cccnc23)c(C=O)n1 [Compound 106, 3-((1,5-naphthyridin-4-yl)methoxy)-6-methylpicolinaldehyde] | + (a delta p50% of between 0 and 29) | ++ (a delta p50% of between 30 and 50) |  |  |
| Cc1ccc(OCc2ccc3c(cnn3C)c2)c(C=O)n1 [Compound 108, 6-methyl-3-((1-methyl-1H-indazol-5-yl)methoxy)picolinaldehyde] | + (a delta p50% of between 0 and 29) | ++ (a delta p50% of between 30 and 50) | +++ (a delta R of 50 or greater) |  |
| COc1cc(C=O)c(OCc2cccc3ncccc23)cn1 [Compound 120, 2-methoxy-5-(quinolin-5-ylmethoxy)isonicotinaldehyde] | + (a delta p50% of between 0 and 29) | ++ (a delta p50% of between 30 and 50) | ++ (a delta R of between 30 and 50) |  |
| COc1cc(C=O)c(OCc2cccnc2-c2ccnn2C)cn1 [Compound 129, 2-methoxy-5-((2-(1-methyl-1H-pyrazol-5-yl)pyridin-3-yl)methoxy)isonicotinaldehyde] | ++ (a delta p50% of between 30 and 50) | ++ (a delta p50% of between 30 and 50) | ++ (a delta R of between 30 and 50) |  |
| COc1cc(C=O)c(OCc2cccnc2-c2nn[nH]n2)cn1 [Compound 131, 5-((2-(2H-tetrazol-5-yl)pyridin-3-yl)methoxy)-2-methoxyisonicotinaldehyde] | + (a delta p50% of between 0 and 29) | ++ (a delta p50% of between 30 and 50) | + (a delta R of between 0 and 30) |  |
| COc1cc(C=O)c(OCc2cccnc2-c2[nH]ncc2C)cn1 [Compound 132, 2-methoxy-5-((2-(4-methyl-1H-pyrazol-5-yl)pyridin-3-yl)methoxy)isonicotinaldehyde] | ++ (a delta p50% of between 30 and 50) | +++ (a delta p50% of 50 or greater) |  | ++ (a delta R of between 30 and 50) |
| COc1cc(C=O)c(OCc2c(-c3ccn[nH]3)ncc3ccccc23)cn1 [Compound 133, 5-((3-(1H-pyrazol-5-yl)isoquinolin-4-yl)methoxy)-2-methoxyisonicotinaldehyde] | + (a delta p50% of between 0 and 29) | ++ (a delta p50% of between 30 and 50) | ++ (a delta R of between 30 and 50) |  |
| COc1cc(C=O)c(OCc2cccn3cncc23)cn1 [Compound 140, 5-(imidazo[1,5-a]pyridin-8-ylmethoxy)-2-methoxyisonicotinaldehyde] | + (a delta p50% of between 0 and 29) | ++ (a delta p50% of between 30 and 50) | + (a delta R of between 0 and 30) |  |
| COCCOc1cc(C=O)c(OCc2cccnc2-c2ccnn2CCC(F)(F)F)cn1 [Compound 209, 2-(2-methoxyethoxy)-5-((2-(1-(3,3,3-trifluoropropyl)-1H-pyrazol-5-yl)pyridin-3-yl)methoxy)isonicotinaldehyde] | + (a delta p50% of between 0 and 29) |  |  |  |
